Test system: AP-1
Experiment: Cellular transrepression assay (AP-1 luciferase reporter in A549 cells, PMA activated)
Assay type: cell-based
Details: 7 h, 10 ng/ml PMA; for EC50: read-out: AP-1 (EC50, nM) (measured in cellular transrepression assay); for Emax: read-out: AP-1 Max % inhibition (measured in cellular transrepression assay)
Procedure: Cellular Transrepressional Assay
To measure the ability of test molecules to inhibit AP-1 induced transcriptional activity we utilized an A549 cell which was stably transfected with a plasmid containing 7×AP-1 DNA binding sites (pAP-1-Luc plasmid, Stratagene Co. La Jolla, Calif.) followed by the gene for luciferase. Cells were activated with 10 ng/ml of phorbol myristic acid (PMA) plus or minus test molecules for 7 hours. After 7 hours a luciferase reagent was added to measure luciferase enzymatic activity in the cell. After a 10 minute incubation of luciferase reagent with cells, luminescence was measured in a TopCount luminescence counter. Repression of AP-1 activity was calculated as the percentage decrease in the signal induced by PMA alone. Test molecules were analyzed in the concentration range from 0.1 nM to 40 μM. EC50s were determined by using standard curve fitting methods such as Excel fit (Microsoft Co.). An EC50 is the test molecule concentration at which there is a 50% repression of the maximal inhibition of transcription, i.e. a 50% reduction of AP-1 activity.

| EC50 | Compound | Emax |
| --- | --- | --- |
| 194 nM | CN(C)C(=O)c1ccc(-c2ccc3c(n2)Oc2ncccc2C3C(C)(C)C(=O)Nc2nncs2)cc1 (single isomer, unassigned) [Example 8] | 45.2% |
| 66.2 nM | CCN(C)C(=O)c1ccc(-c2ccc3c(n2)Oc2ncccc2C3C(C)(C)C(=O)Nc2nncs2)cc1 (single isomer, unassigned) [Example 9] | 55.4% |
| 368 nM | CC[S+]([O-])c1ccc(-c2ccc3c(n2)Oc2nc(C)ccc2C3C(C)(C)C(=O)Nc2nncs2)cc1 (stereo in doubt) [Example 81, 2-((5S)-2-(4-(ethylsulfinyl)phenyl)-8-methyl-5H-pyrido[3′,2′:5,6]pyrano[2,3-b]pyridin-5-yl)-2-methyl-N-1,3,4-thiadiazol-2-ylpropanamide] | 28.7% |
| 181 nM | Cc1ccc2c(n1)Oc1nc(-c3ccc([S+]([O-])C(C)C)cc3)ccc1C2C(C)(C)C(=O)Nc1nncs1 (stereo in doubt) [Example 82, 2-((5S)-2-(4-(isopropylsulfinyl)phenyl)-8-methyl-5H-pyrido[3′,2′:5,6]pyrano[2,3-b]pyridin-5-yl)-2-methyl-N-1,3,4-thiadiazol-2-ylpropanamide] | 34.4% |
| 255 nM | CN(C)C(=O)c1ccc(-c2ccc3c(n2)Oc2cnccc2C3C(C)(C)C(=O)Nc2nncs2)cc1 (stereo not shown) [Example 1, 4-(5-(1,1-dimethyl-2-oxo-2-(1,3,4-thiadiazol-2-ylamino)ethyl)-5H-pyrido[4′,3′:5,6]pyrano[2,3-b]pyridin-2-yl)-N,N-dimethylbenzamide] | 29.3% |
| 189 nM | CN(C)C(=O)c1ccc(-c2ccc3c(n2)Oc2ncccc2C3C(C)(C)C(=O)Nc2nncs2)cc1 (stereo not shown) [Example 3, 4-(5-(1,1-dimethyl-2-oxo-2-(1,3,4-thiadiazol-2-ylamino)ethyl)-5H-pyrido[3′,2′:5,6]pyrano[2,3-b]pyridin-2-yl)-N,N-dimethylbenzamide] | 38.6% |
| 197 nM | CCN(C)C(=O)c1ccc(-c2ccc3c(n2)Oc2ncccc2C3C(C)(C)C(=O)Nc2nncs2)cc1 (stereo not shown) [Example 4] | 46.6% |
| 142 nM | CC(C)(C(=O)Nc1nncs1)C1c2cccnc2Oc2nc(-c3ccc(C(=O)N4CCOCC4)cc3)ccc21 (stereo not shown) [Example 5] | 33.9% |
| 189 nM | Cc1ccc2c(n1)Oc1nc(-c3ccc(C(=O)N(C)C)cc3)ccc1C2C(C)(C)C(=O)Nc1nncs1 (stereo not shown) [Example 10, 4-(5-(1,1-dimethyl-2-oxo-2-(1,3,4-thiadiazol-2-ylamino)ethyl)-8-methyl-5H-pyrido[3′,2′:5,6]pyrano[2,3-b]pyridin-2-yl)-N,N-dimethylbenzamide] | 39% |
| 90.1 nM | Cc1ccc2c(n1)Oc1nc(-c3ccc(C(=O)N(C)C)cc3)ccc1[C@H]2C(C)(C)C(=O)Nc1nncs1 [Example 11] | 45.2% |
| 297 nM | Cc1ccc2c(n1)Oc1nc(-c3ccc(C(=O)N(C)C)cc3)ccc1[C@H]2C(C)(C)C(=O)Nc1nnc(C)s1 [Example 12] | 26.6% |
| 233 nM | Cc1ccc2c(n1)Oc1nc(-c3ccc(C(=O)N(C)C)cc3)ccc1[C@H]2C(C)(C)C(=O)Nc1ncns1 [Example 13] | 38.1% |
| 97.2 nM | CCN(C)C(=O)c1ccc(-c2ccc3c(n2)Oc2nc(C)ccc2C3C(C)(C)C(=O)Nc2nncs2)cc1 (stereo not shown) [Example 14, 4-(5-(1,1-dimethyl-2-oxo-2-(1,3,4-thiadiazol-2-ylamino)ethyl)-8-methyl-5H-pyrido[3′,2′:5,6]pyrano[2,3-b]pyridin-2-yl)-N-ethyl-N-methylbenzamide] | 58% |
| 460 nM | Cc1ccc2c(n1)Oc1nc(-c3ccc(C(=O)N4CCOCC4)cc3)ccc1C2C(C)(C)C(=O)Nc1nncs1 (stereo not shown) [Example 15] | 47.4% |
| 541 nM | Cc1ccc2c(n1)Oc1nc(-c3ccc(C(=O)N4CCCC4)cc3)ccc1C2C(C)(C)C(=O)Nc1nncs1 (stereo not shown) [Example 16] | 40.2% |
| 72.8 nM | CC(=O)c1ccc(-c2ccc3c(n2)Oc2nc(C)ccc2C3C(C)(C)C(=O)Nc2nncs2)cc1 (stereo not shown) [Example 17] | 42.4% |

| EC50 | Compound | Emax |
| --- | --- | --- |
| 52 nM | CCN(C)C(=O)c1ccc(-c2ccc3c(n2)Oc2nc(C)ccc2C3C(C)(C)C(=O)Nc2nncs2)cc1F (stereo not shown) [Example 18] | 47.8% |
| 198 nM | Cc1ccc2c(n1)Oc1nc(N(C)C)ccc1C2C(C)(C)C(=O)Nc1nncs1 (stereo not shown) [Example 20, 2-(2-(dimethylamino)-8-methyl-5H-pyrido[3′,2′:5,6]pyrano[2,3-b]pyridin-5-yl)-2-methyl-N-1,3,4-thiadiazol-2-ylpropanamide] | 27.9% |
| 166 nM | CCN(C)C(=O)c1ccc(-c2ccc3c(n2)Oc2nc(C)ccc2[C@@H]3C(C)(C)C(=O)Nc2nncs2)cc1F [Example 21] | 49.7% |
| 81.9 nM | CCN(C)C(=O)c1ccc(-c2ccc3c(n2)Oc2nc(C)ccc2[C@@H]3C(C)(C)C(=O)Nc2nncs2)cc1 [Example 22] | 59.3% |
| 41.9 nM | Cc1ccc2c(n1)Oc1nc(-c3ccc(SC(C)C)cc3)ccc1[C@H]2C(C)(C)C(=O)Nc1nncs1 [Example 27] | 32.4% |
| 41.6 nM | Cc1ccc2c(n1)Oc1nc(-c3ccc(OC(C)C)cc3)ccc1[C@H]2C(C)(C)C(=O)Nc1nncs1 [Example 30] | 34.6% |
| 376 nM | Cc1ccc2c(n1)Oc1nc(-c3ccc(C(=O)N4CCCC4)cc3)ccc1[C@H]2C(C)(C)C(=O)Nc1nncs1 [Example 31] | 49.3% |
| 176 nM | CCOC(=O)c1nnc(NC(=O)C(C)(C)[C@H]2c3ccc(C)nc3Oc3nc(-c4ccc(C(=O)N(C)CC)cc4)ccc32)s1 [Example 32] | 74.3% |
| 449 nM | CCN(C)C(=O)c1ccc(-c2ccc3c(n2)Oc2nc(C)ccc2[C@@H]3C(C)(C)C(=O)Nc2ncc(C)s2)cc1 [Example 33] | 50.8% |
| 14.6 nM | CCN(C)C(=O)c1ccc(-c2ccc3c(n2)Oc2nc(C)ccc2[C@@H]3C(C)(C)C(=O)Nc2nccs2)cc1 [Example 34] | 64.9% |
| 175 nM | CCN(C)C(=O)c1ccc(-c2ccc3c(n2)Oc2nc(C)ccc2[C@@H]3C(C)(C)C(=O)Nc2nnc(C)s2)cc1 [Example 35] | 45% |
| 526 nM | Cc1ccc2c(n1)Oc1nc(-c3ccc([S+](C)[O-])cc3)ccc1C2C(C)(C)C(=O)Nc1nncs1 [Example 36, (4-((5S)-5-(1,1-dimethyl-2-oxo-2-(1,3,4-thiadiazol-2-ylamino)ethyl)-8-methyl-5H-pyrido[3′,2′:5,6]pyrano[2,3-b]pyridin-2-yl)phenyl)(methyl)sulfoniumolate] | 26.9% |
| 470 nM | Cc1ccc2c(n1)Oc1nc(-c3ccc(C(=O)N4CCC4)cc3)ccc1[C@H]2C(C)(C)C(=O)Nc1nncs1 [Example 38] | 41.9% |
| 539 nM | Cc1ccc2c(n1)Oc1nc(-c3ccc(C(=O)N4CCC(F)(F)C4)cc3)ccc1[C@H]2C(C)(C)C(=O)Nc1nncs1 [Example 40] | 43.3% |
| 359 nM | Cc1ccc2c(n1)Oc1nc(-c3ccc(C(=O)N(C)C4CC4)cc3)ccc1[C@H]2C(C)(C)C(=O)Nc1nncs1 [Example 41] | 39.2% |
| 228 nM | Cc1ccc2c(n1)Oc1nc(-c3ccc(C(=O)N4CCOCC4)c(F)c3)ccc1[C@H]2C(C)(C)C(=O)Nc1nncs1 [Example 42] | 43.6% |

Source: patent US8304539B2, “Fused heteroaryl modulators of glucocorticoid receptor, AP-1, and/or NF-κB activity and use thereof” (Bristol-Myers Squibb Company, priority 2008, dated 2012)
